Test results as given in publication PMC7534323 (Journal of Enzyme Inhibition and Medicinal Chemistry, 2020).
Values joined by “and” are separate entries in the source; they are usually repeats but may differ in a detail not shown here. Equal entries are not always repeated.

Legend:
[1] = target: T1, human erythrocyte acetylcholinesterase (AChE) (Homo sapiens, UniProt P22303); assay: biochemical; assay type: biochemical
T1 construct: 400-fold diluted solution of haemolysed erythrocytes or 200-fold diluted plasma; from tissue; host or cells: haemolysed erythrocytes from blood of healthy human donors
T1 sequence (P22303 other isoform, or with tags, fused parts or gaps): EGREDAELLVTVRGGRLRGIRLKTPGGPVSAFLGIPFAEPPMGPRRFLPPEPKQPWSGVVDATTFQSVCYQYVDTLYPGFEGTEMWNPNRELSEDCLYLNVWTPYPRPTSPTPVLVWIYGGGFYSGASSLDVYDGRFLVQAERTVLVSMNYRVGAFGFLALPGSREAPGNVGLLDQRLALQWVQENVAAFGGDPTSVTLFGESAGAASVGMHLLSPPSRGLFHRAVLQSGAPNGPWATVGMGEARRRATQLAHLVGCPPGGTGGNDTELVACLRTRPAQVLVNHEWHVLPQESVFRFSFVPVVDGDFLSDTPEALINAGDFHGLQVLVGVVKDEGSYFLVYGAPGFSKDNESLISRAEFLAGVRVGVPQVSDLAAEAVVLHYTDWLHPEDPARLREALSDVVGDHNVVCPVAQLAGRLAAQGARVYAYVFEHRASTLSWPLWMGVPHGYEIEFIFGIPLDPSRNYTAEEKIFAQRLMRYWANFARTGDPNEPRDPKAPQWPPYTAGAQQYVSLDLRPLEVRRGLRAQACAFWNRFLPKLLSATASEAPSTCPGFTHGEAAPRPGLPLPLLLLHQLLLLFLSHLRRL
Method: (§1) Blood samples were obtained from healthy donors of Blood Donation Centre in Lodz and The Voievodal Specialised Hospital in Lodz. The preparation of erythrocytes for AChE activity measurements and plasma for the assessment of BuChE activity has been described previously.
(§2) The biological sample, consisting of a 400-fold diluted solution of haemolysed erythrocytes or 200-fold diluted plasma was incubated for 15 min (37 °C) with DTNB; the tested compound was then added in a volume of 10 µL. The enzymatic reaction was initiated by addition of a reaction substrate (ATC or BTC).

[2] = target: human plasma butyrylcholinesterase (BuChE) (Homo sapiens, UniProt P06276); assay: biochemical
human plasma butyrylcholinesterase (BuChE), sequence (P06276 29-602): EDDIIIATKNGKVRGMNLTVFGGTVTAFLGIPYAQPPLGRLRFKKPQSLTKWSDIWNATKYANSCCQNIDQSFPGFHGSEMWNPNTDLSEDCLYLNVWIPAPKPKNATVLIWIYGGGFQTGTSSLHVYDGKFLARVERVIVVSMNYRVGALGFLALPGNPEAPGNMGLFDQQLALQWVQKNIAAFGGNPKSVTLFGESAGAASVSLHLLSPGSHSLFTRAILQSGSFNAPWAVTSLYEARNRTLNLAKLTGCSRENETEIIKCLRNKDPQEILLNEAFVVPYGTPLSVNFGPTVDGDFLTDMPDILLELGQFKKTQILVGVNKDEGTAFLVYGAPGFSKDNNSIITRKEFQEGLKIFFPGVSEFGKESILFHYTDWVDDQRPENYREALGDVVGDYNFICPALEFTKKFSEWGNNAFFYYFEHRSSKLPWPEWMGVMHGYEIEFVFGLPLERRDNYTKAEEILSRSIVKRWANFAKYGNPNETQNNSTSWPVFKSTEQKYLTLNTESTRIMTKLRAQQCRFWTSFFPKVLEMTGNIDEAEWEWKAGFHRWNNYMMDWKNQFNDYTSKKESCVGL
Method: as §1, §2

BuChE in human plasma = BuChE in human plasma (Homo sapiens, UniProt P06276)
BuChE in human plasma, sequence (P06276 29-602): as above
Method: Due to the high level of variation in the individual concentration and activity of BuChE in human plasma, 32 biological samples were studied.
The kinetic parameters of enzymatic reactions were estimated using linear regression (Hanes-Woolf plots). The following parameters were calculated: the maximal velocity (Vmax) and the Michaelis constant (Km).
The kinetic parameters of BuChE reactions were obtained in a series of experiments using decreasing concentrations of BTC. The curves were analysed using the Hanes-Woolf equation, in which the ratio of the initial substrate concentration [S] to the reaction velocity v is plotted against [S].

SMILES | maximal inhibition of AChE ([1]; concentration range 0.01−100 µmol/L, vs control (100% of activity), listed as compound 2) | IC50 [2] [µM] | type of BuChE inhibition (BuChE in human plasma; from Km and Vmax with and without inhibitor at IC50 concentration) | Vmax(i) (Vmax of the reactions with inhibitor) (BuChE in human plasma; inhibitor at IC50 concentration, substrate BTC, mean ± SD) [A/min] | IC50 [1] [µM] | inhibition at 100 µM ([1]; read-out: maximal inhibitory effect against AChE) [%]
Cc1ncc(C)n2nc(-c3ccn4cc(-c5ccccc5)nc4n3)nc12 [CPL500036-02] | 34.87 ± 1.65% and ~34.87% |  |  |  |  | 
OCCOCCN1CCN(C2=Nc3ccccc3Sc3ccccc32)CC1 [Quetiapine] |  | 6.08 ± 1.64 | mixed inhibition | 0.137 ± 0.036 | > 100 | 8.82 ± 1.68
